Experimental data as given in patent publication US20040132188A1, “Use of non-complexing peptides for the preparation of a composition for transfection of a polynucleotide into a cell and compositions useful in gene therapy” (priority 2001, published 2004).
Entries after “also recorded” stand apart in the source; their conditions may differ. Square brackets hold non-standard residues; d marks the D form. Ends that are not written are not given here.

Legend:
plasmid pTG11236 = experiment: Gel retardation assay (DNA binding activity)
Experimental: 3 μg of the plasmid pTG11236 were incubated with increasing amounts of the respective peptide in a final volume of 30 μl with 0.9% NaCl. After 20 min of incubation at room temperature, 6 μl 5× loading buffer (glycerol and bromphenol blue in TAE buffer) were added and 10 μl of these solutions were analyzed on a 1% agarose gel in the presence of ethidium bromide.
The ability of ppTG1 peptide to complex DNA was analyzed by gel retardation assays. […] After 20 minutes incubation at room temperature, loading buffer was added and 10 μl of the resulting solution were analyzed on a 1% agarose gel.
ppTG1 derivatives as they are indicated in Materials and Methods, were tested for their capacity to bind plasmid DNA by gel retardation assays.

[1] = Liposome leakage assay, POPC/cholesterol 3:2 liposomes; assay type: biochemical; details: for liposome leakage activity / calcein release: POPC/chol liposomes, pH 7
Excerpt: FIG. 9: Liposome leakage assay. […] Emitted fluorescence was plotted against peptide concentration. […] C) Comparison of ppTG1, ppTG20 and ppTG21 at pH 7.
Leakage activity was plotted against peptide concentration.

HeLa cells = experiment: Transfection in vitro, luciferase plasmid pTG11236; assay type: cell-based; details: for transfection / gene transfer efficiency in vitro: 50 ng pTG11236, increasing amounts of peptide, day 1
Experimental: Cells were plated on 24 well plates at a density of 4×10^4 (293-EBNA ) or 7×10^4 (HeLa, Renca) cells/well in DMEM supplemented with 10% FCS. The next day, the medium was replaced by 200 μl serum-free DMEM and plasmid (PTG11056 or pTG11236)/peptide complexes or plasmid/peptide/lipid complexes were prepared in 30 μl 0.9% NaCl or 5% glucose. After 20 min at room temperature these complexes were added to the cells which were then incubated for 2-3 h at 37° C. and 5% CO2 before 1 ml serum-containing DMEM was added. Approximately 20 hours later, cells were lysed by addition of 100 μl 1× Promega lysis buffer, 20 μl of the lysates were analysed for luciferase activity. Proteins were quantified with the bicinchonic acid (BCA) colorimetric method (Smith, Anal. Biochem. 150 (1985), 76-85). […]
HeLa cells were seeded at a density of 6×10^4 cells on 24 well plates. The next day, cells were incubated with 200 μl serum-free medium, 30 μl of plasmid (50 ng)/peptide/lipid mixtures were added and incubated for 3 h at 37° C. in 5% CO2. 1 ml of DMEM+10% FCS was then added. The next day, the medium was removed and cells were washed with 500 μl of PBS and subsequently treated with 100 μl of Promega lysis buffer. Plates were stored at −80° C. until luciferase activity was measured of 20 μl of the cell lysate. The protein assay was performed using the Pierce BCA kit.
JTS1 was dissolved to 1 mg/ml in 1 mM NaOH and mixed with DNA diluted in 5% glucose. ppTG1 was then added to this solution. The pcTG90/DOPE ppTG1 mixtures were prepared as described in Example 6. Transfection assays were performed on HeLa cells with 50 ng of plasmid as described in Example 6.
The series of ppTG1 derivatives listed in Material and Methods were tested for their gene transfer efficiencies in Hela cells. 6×10^4 cells were transfected with 50 ng pTG11236 complexed with increasing amounts of peptide. Luciferase activity was analyzed day 1 after transfection. The results are shown in FIG. 10B (ppTG20, ppTG21), FIG. 10C (ppTG25, ppTG26, ppTG27), FIG. 10D (ppTG28 to ppTG33), FIG. 10E (PEG-ppTG1 and PEG-ppTG20), FIG. 10F (ppTG22 to ppTG24) and FIG. 10G (ppTG20-D).

RENCA tumors = experiment: In vivo gene transfer after intratumoral injection, luciferase activity in tumors; parameters: species or system B6D2 mice; details: 10 μg pTG11236, peptide at pH 8, intratumoral, day 1
Experimental: 4×10^5 RENCA cells (murine kidney tumor cells, ATCC) were injected subcutaneously into B6D2 mice to provoke tumor growth. When tumors reached a size of approximatively 30 mm^3, 30 μl of a 5% glucose solution, containing the luciferase expression plasmid DNA pTG11236 in presence or absence of peptide of the present invention were injected into the tumors. Mice were sacrificed at day 1 after injection, tumors were recovered and homogeinized. Luciferase activity was analyzed and expressed as RLU/g tumor.
The peptide ppTG21 was tested for its capacity to enhance plasmid transfer after intratumoral injection in RENCA tumor-bearing mice. Ten μg of the luciferase expression plasmid pTG11236 were mixed with increasing amounts (i.e. 0.1, 0.6, 3 or 15 micrograms) of ppTG21 at pH 8 (10 mM Tris pH 8). […] In paralell, experiments have been conducted in identical conditions by administering the same plasmid DNA in the presence of increasing amounts (i.e. 0.1%, 0.2%, 0.4% and 0.6 %) of HPC (Hexadecyl-phospho-choline). Plasmid DNA alone, or plasmid DNA in the presence of HPC or ppTG21 were intratumorally injected in similar conditions. Next day, luciferase activities in the tumors was determined (RLU/g tumour).

B6SJL mice, lungs = experiment: In vivo gene transfer after intravenous injection, luciferase activity in the lungs; details: pTG11236/peptide complexes intravenously injected; for gene transfer efficiency in the lung: luciferase day 1
Experimental: Mice were sacrificed at day 1.
Lungs were tested for luciferase activity.

[2] = Liposome leakage assay, POPC/cholesterol 3:2 liposomes; assay type: biochemical; details: POPC/chol liposomes, pH 5
[3] = pH 5 versus pH 7; cited from earlier work
[4] = 50 ng pTG11236 complexed with 0.9 μg ppTG1 and 0.1 μg JTS1, final charge ratio 5

Which “binding to plasmid DNA” value (plasmid pTG11236; pH 5) does the source give for GLFHALLHLLHSLWHLLLHA here?
The value was “binds plasmid DNA; also recorded: can bind DNA”.

And the “binding to plasmid DNA” value (plasmid pTG11236; pH 8)?
Its value is “not capable to bind to plasmid DNA”.

What about the “liposome leakage activity / calcein release” value [1] of the same substance?
The value was “comparable to ppTG1”.

What about the “transfection / gene transfer efficiency in vitro” value (HeLa cells; HeLa cells) of the same substance?
Its value is “strongly reduced”.

What about the “gene expression (luciferase) in tumors after co-injection with plasmid” value (RENCA tumors) of the same substance?
Its value is “increase of apparent gene expression; also recorded: dramatic improvement of the nucleic acid transfer efficiency”.

Which “liposome leakage activity / calcein release” value [1] does the source give for GIFRAIIRIIRSIWRIIIRA here?
The value was “slightly reduced”.

What about the “transfection / gene transfer efficiency in vitro” value (HeLa cells; HeLa cells) of the same substance?
Its value is “diminished; also recorded: reduced”.

With CGLFKALLKLLKSLWKLLLKA as the substance, how does the “liposome leakage activity / calcein release” value [1] read?
Its value is “slightly reduced”.

With “GLFEALLELLESLWELLLEACCYKAKKKKKKKKWKKKKQS (cysteine pairing not given here) [reference compound]” as the substance, how does the “retardation of pTG11236” value (plasmid pTG11236; 3 μg (0.6 nmol) peptide, 3 μg pTG11236) read?
Its value is over 95%.

And the “liposome leakage activity / calcein release” value [1]?
Its value is “impeded in calcein release”.

And the transfection (HeLa cells; 0.05 μg plasmid DNA)?
The transfection was “remains low”.

And the “gene transfer efficiency in the lung” value (B6SJL mice, lungs)?
The value was “low”.

What about the “liposome leakage activity / calcein release” value [2] of the same substance?
The value was “low level release”.

Which results are given for “Gly-Leu-Phe-Arg-Ala-Leu-Leu-Arg-Leu-Leu-Arg-Ser-Leu-Trp-Arg-Leu-Leu-Leu-Arg-Ala (G[dL][dF][dR][dA][dL][dL][dR][dL][dL][dR][dS][dL][dW][dR][dL][dL][dL][dR][dA]) [ppTG20-D]”?
liposome leakage activity / calcein release [1]: retained; transfection / gene transfer efficiency in vitro (HeLa cells; HeLa cells): retained; also recorded: as efficient as ppTG1; gene transfer efficiency in the lung (B6SJL mice, lungs): even higher than with ppTG1; also recorded: even more efficient than ppTG20

Which “liposome leakage activity / calcein release” value [1] does the source give for GVFKAVVKVVKSVWKVVVKA here?
Its value is “diminished; also recorded: significantly reduced”.

And the “transfection / gene transfer efficiency in vitro” value (HeLa cells; HeLa cells)?
The value was “diminished”.

What about the “gene transfer efficiency in the lung” value (B6SJL mice, lungs) of the same substance?
The value was “drastically reduced; also recorded: did not lead to detectable reporter gene expression”.

Which “liposome leakage activity / calcein release” value [1] does the source give for GLFRRLLRLLRRLWRLLLRA here?
Its value is “comparable to ppTG1 and ppTG20; also recorded: slightly reduced”.

What about the “transfection / gene transfer efficiency in vitro” value (HeLa cells; HeLa cells) of the same substance?
The value was “comparable to ppTG1 and ppTG20; also recorded: did not change”.

Which “toxicity” value (B6SJL mice, lungs) does the source give for GLFRALLRLLRSLWRLLLRA [ppTG20] here?
Its value is “less toxic than ppTG1”.

Which “liposome leakage activity / calcein release” value [1] does the source give for GLFKKLLKLLKKLWKLLLKA here?
The value was “comparable to ppTG1 and ppTG20; also recorded: slightly reduced”.

And the “transfection / gene transfer efficiency in vitro” value (HeLa cells; HeLa cells)?
Its value is “comparable to ppTG1 and ppTG20; also recorded: did not change”.

What does the source list for GVFRAVVRVVRSVWRVVVRA?
liposome leakage activity / calcein release [1]: diminished; also recorded: significantly reduced; transfection / gene transfer efficiency in vitro (HeLa cells; HeLa cells): diminished

Which results are given for “GLFEALLELLESLWELLLEA [reference compound]”?
liposome leakage activity / calcein release [1]: reduced; increase of luciferase activity versus best formulation of ppTG1/pcTG90/DOPE (HeLa cells; [4]): about 10 factor; increase of luciferase activity versus pcTG90/DOPE alone (HeLa cells; [4]): about 1000 factor; liposome leakage activity / calcein release [2]: high lysis activity; lysing of calcein containing phosphatidylcholine liposomes [3]: more efficiently than at a pH 7

For GIFKAIIKIIKSIWKIIIKA, which “transfection / gene transfer efficiency in vitro” value (HeLa cells; HeLa cells) is on record?
The value was “diminished; also recorded: reduced”.

What does the source list for “WEAKLAKALAKALAKHLAKALAKALKACEA [reference compound]”?
liposome leakage activity ([1]; POPC/Chol (3:2) liposomes, pH not separated (compared at pH 5 and pH 7)): no activity; also recorded: could not liberate calcein; gene transfer at optimal charge ratio lower than for ppTG1 (HeLa cells; 50 ng pTG11236): 200 fold; gene transfer at optimal charge ratio lower than for ppTG1 (HeLa cells; 500 ng pTG11236): 4 fold; best (optimal) charge ratio for gene transfer (HeLa cells; HeLa cells, 50 ng and 500 ng pTG11236): 7; gene transfer efficiency in the lung (B6SJL mice, lungs): undetectable; also recorded: inefficient

With “CGLFKALLKLLKSLWKLLLKAC (cysteine pairing not given here)” as the substance, how does the “liposome leakage activity / calcein release” value [1] read?
The value was “slightly reduced”.
